# Activity calls are given as the source filed them. No cut-off for these calls is given here.
# Assays:
# PC-3 [1] = test: Cell cycle arrest in human PC3 cells assessed as accumulation at S phase at 2 uM after 48 hrs using propidium iodide staining by flow cytometry (reference value: 38.16 %); format: functional
# PC-3 [2] = test: Induction of apoptosis in human PC3 cells at 2 uM after 48 hrs using propidium iodide staining by flow cytometry (reference value: 0.84 %); format: functional
# PC-3 [3] = test: Cell cycle arrest in human PC3 cells assessed as accumulation at G1 phase at 2 uM after 72 hrs using propidium iodide staining by flow cytometry (reference value: 42.19 %); format: functional
# PC-3 [4] = test: Inhibition of serotonin-induced MAPK phosphorylation in human PC3 cells at 2 uM after 48 hrs by Western blotting; format: cell-based
# [5] = target: RAC-alpha serine/threonine-protein kinase (Homo sapiens) (UniProt P31749); test: Inhibition of serotonin-induced AKT phosphorylation in human PC3 cells at 2 uM after 48 hrs by Western blotting; format: cell-based; conditions: PC-3
# PC-3 [6] = test: Induction of apoptosis human PC3 cells assessed as externalization of phosphatidylserine on the outer layer of plasma membrane at 1 uM after 24 to 48 hrs using Annexin-V-FITC staining by flow cytometry; format: functional, cell-based
# PC-3 [7] = test: Cell cycle arrest in human PC3 cells assessed as accumulation at G1 phase at 2 uM after 24 hrs using propidium iodide staining by flow cytometry (reference value: 46.97 %); format: functional
# PC-3 [8] = test: Cell cycle arrest in human PC3 cells assessed as accumulation at G2 phase at 2 uM after 24 hrs using propidium iodide staining by flow cytometry (reference value: 18.19 %); format: functional
# PC-3 [9] = test: Cell cycle arrest in human PC3 cells assessed as accumulation at G2 phase at 2 uM after 72 hrs using propidium iodide staining by flow cytometry (reference value: 20.18 %); format: functional
# PC-3 [10] = test: Cell cycle arrest in human PC3 cells assessed as accumulation at S phase at 2 uM after 72 hrs using propidium iodide staining by flow cytometry (reference value: 37.73 %); format: functional
# PC-3 [11] = test: Induction of apoptosis in human PC3 cells at 2 uM after 72 hrs using propidium iodide staining by flow cytometry (reference value: 1.79 %); format: functional
# PC-3 [12] = test: Cell cycle arrest in human PC3 cells assessed as accumulation at S phase at 2 uM after 24 hrs using propidium iodide staining by flow cytometry (reference value: 34.84 %); format: functional
# PC-3 [13] = test: Induction of apoptosis in human PC3 cells at 2 uM after 24 hrs using propidium iodide staining by flow cytometry (reference value: 1.27 %); format: functional
# PC-3 [14] = test: Cell cycle arrest in human PC3 cells assessed as accumulation at G1 phase at 2 uM after 48 hrs using propidium iodide staining by flow cytometry (reference value: 54.14 %); format: functional
# PC-3 [15] = test: Cell cycle arrest in human PC3 cells assessed as accumulation at G2 phase at 2 uM after 48 hrs using propidium iodide staining by flow cytometry (reference value: 13.36 %); format: functional
# RAC-alpha serine/threonine-protein kinase (Homo sapiens), sequence (P31749 whole entry): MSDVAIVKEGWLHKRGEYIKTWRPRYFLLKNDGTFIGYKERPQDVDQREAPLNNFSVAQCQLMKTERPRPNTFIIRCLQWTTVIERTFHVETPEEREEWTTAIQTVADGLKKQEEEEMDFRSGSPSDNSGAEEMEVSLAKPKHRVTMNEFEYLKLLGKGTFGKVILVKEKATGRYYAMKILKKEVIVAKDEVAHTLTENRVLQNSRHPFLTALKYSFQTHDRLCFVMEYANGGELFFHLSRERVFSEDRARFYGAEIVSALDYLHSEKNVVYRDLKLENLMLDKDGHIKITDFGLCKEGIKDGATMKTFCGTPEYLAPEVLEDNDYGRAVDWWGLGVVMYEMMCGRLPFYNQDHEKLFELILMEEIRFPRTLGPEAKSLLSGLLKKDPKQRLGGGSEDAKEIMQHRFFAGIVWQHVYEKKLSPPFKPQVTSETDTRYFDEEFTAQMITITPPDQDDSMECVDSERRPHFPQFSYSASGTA
smiles,measurement,setting,value
CC[C@@]1(O)C(=O)OCc2c1cc1n(c2=O)Cc2cc3c(CN(C)C)c(O)ccc3nc2-1 [TOPOTECAN],Activity,PC-3 [1],61.76%
same,Activity,PC-3 [2],16.32%
same,Activity,PC-3 [3],0%
same,inhibition,PC-3 [4],inactive
same,inhibition,[5],Active
same,Activity,PC-3 [6],Active
same,Activity,PC-3 [7],37.23%
same,Activity,PC-3 [8],28.86%
same,Activity,PC-3 [9],36.31%
same,Activity,PC-3 [10],63.69%
same,Activity,PC-3 [11],8.14%
same,Activity,PC-3 [12],33.91%
same,Activity,PC-3 [13],5.43%
same,Activity,PC-3 [14],19.17%
same,Activity,PC-3 [15],19.07%

# Reference: ChEMBL document CHEMBL1781926, “Synthesis of 1-naphtylpiperazine derivatives as serotoninergic ligands and their evaluation as antiproliferative agents” (Eur J Med Chem, 2011)
